Values quoted from earlier work as cited in patent US20070275382A1, “Biomarkers for the Efficacy of Somatostatin Analogue Treatment” (priority 2003, published 2007).
Like-named read-outs stand apart in the source and are kept apart here.

What was measured:
[1] = biological target: hSST-2 (Homo sapiens, UniProt P30874); conditions: background statement, cited from earlier work
[2] = biological target: hSST-3 (Homo sapiens, UniProt P32745); conditions: background statement; cited from earlier work
Chain of hSST-3 (P32745 whole entry): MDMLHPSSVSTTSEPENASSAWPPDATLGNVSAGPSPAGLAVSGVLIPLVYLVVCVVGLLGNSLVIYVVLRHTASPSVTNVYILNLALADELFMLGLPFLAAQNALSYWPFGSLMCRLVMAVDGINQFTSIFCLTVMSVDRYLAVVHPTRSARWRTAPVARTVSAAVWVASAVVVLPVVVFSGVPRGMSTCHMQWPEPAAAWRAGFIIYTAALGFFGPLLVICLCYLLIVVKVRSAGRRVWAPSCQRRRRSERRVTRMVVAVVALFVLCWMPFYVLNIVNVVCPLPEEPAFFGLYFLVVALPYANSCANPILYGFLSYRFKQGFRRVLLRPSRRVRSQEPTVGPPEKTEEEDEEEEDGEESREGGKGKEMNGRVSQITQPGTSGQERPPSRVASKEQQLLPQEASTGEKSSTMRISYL

Chain of hSST-2 (P30874 whole entry): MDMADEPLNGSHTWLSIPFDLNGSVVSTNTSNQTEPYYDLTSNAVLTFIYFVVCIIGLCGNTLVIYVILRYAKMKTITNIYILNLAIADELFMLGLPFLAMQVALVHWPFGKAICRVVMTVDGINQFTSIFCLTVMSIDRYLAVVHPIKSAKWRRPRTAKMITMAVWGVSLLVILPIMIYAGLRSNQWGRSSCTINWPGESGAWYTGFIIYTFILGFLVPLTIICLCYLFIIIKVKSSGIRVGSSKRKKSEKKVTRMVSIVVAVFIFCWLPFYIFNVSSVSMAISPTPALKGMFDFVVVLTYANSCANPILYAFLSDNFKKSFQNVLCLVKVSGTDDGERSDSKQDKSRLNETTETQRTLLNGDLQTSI

SMILES	affinity/binding to somatostatin receptor subtype 2 (SSTR2) [1]	affinity/binding to somatostatin receptor subtype 2 (SSTR2) ([1]; listed as Sandostatin®)	binding to SSTR3 [2]
C[C@@H](O)[C@@H]1NC(=O)[C@H](CCCCN)NC(=O)[C@@H](Cc2c[nH]c3ccccc23)NC(=O)[C@H](Cc2ccccc2)NC(=O)[C@@H](NC(=O)[C@H](N)Cc2ccccc2)CSSC[C@@H](C(=O)N[C@H](CO)[C@@H](C)O)NC1=O [octreotide]	selective high affinity	binds mainly to SSTR2	to some extent
CC(C)[C@@H]1NC(=O)[C@H](CCCCN)NC(=O)[C@@H](Cc2c[nH]c3ccccc23)NC(=O)[C@H](Cc2ccc(O)cc2)NC(=O)[C@@H](NC(=O)[C@H](N)Cc2ccc3ccccc3c2)CSSC[C@@H](C(=O)N[C@H](C(N)=O)[C@@H](C)O)NC1=O [lanreotide]	selective high affinity	–	–
